From the NIST ThermoML archive (doi:10.1021/je800925v)

Test: xn = mol fraction of the nth substance listed
Conditions: Liquid

CCCCCCCCCC [decane] + CCO
Conditions | mass density [kg/m3] | viscosity [mPa·s]
285.65 K, x2 = 0.602 | – | 1.158
285.65 K, x2 = 0.694 | 757.3 | 1.183
285.65 K, x2 = 0.799 | 764.7 | 1.22
285.65 K, x2 = 0.905 | 777.4 | 1.278
288.15 K, x2 = 0.098 | 735 | 0.9574
288.15 K, x2 = 0.198 | 736.7 | 0.9702
288.15 K, x2 = 0.301 | 739 | 0.9738
288.15 K, x2 = 0.397 | 742 | 1.003
288.15 K, x2 = 0.501 | 745.5 | 1.056
288.15 K, x2 = 0.602 | 750.6 | 1.104
288.15 K, x2 = 0.694 | 755.2 | 1.128
288.15 K, x2 = 0.799 | 762.7 | 1.163
288.15 K, x2 = 0.905 | 775.3 | 1.218
290.65 K, x2 = 0.098 | 733.1 | 0.9207
290.65 K, x2 = 0.198 | 734.8 | 0.9321
290.65 K, x2 = 0.301 | 737 | 0.9348
290.65 K, x2 = 0.397 | 740 | 0.9608
290.65 K, x2 = 0.501 | 743.5 | 1.009
290.65 K, x2 = 0.602 | 748.6 | 1.053
290.65 K, x2 = 0.694 | 753.1 | 1.076
290.65 K, x2 = 0.799 | 760.6 | 1.11
290.65 K, x2 = 0.905 | 773.3 | 1.162
293.15 K, x2 = 0 | 731 | 0.9133
293.15 K, x2 = 0.098 | 731.2 | 0.8862
293.15 K, x2 = 0.198 | 732.8 | 0.8973
293.15 K, x2 = 0.301 | 735.1 | 0.8982
293.15 K, x2 = 0.397 | 738 | 0.9215
293.15 K, x2 = 0.501 | 741.5 | 0.966
293.15 K, x2 = 0.602 | 746.6 | 1.006
293.15 K, x2 = 0.694 | 751.1 | 1.028
293.15 K, x2 = 0.799 | 758.5 | 1.061
293.15 K, x2 = 0.905 | 771.2 | 1.109
295.65 K, x2 = 0.098 | 729.4 | 0.8534
295.65 K, x2 = 0.198 | 730.9 | 0.8635
295.65 K, x2 = 0.301 | 733.1 | 0.8638
295.65 K, x2 = 0.397 | 736 | 0.8848
295.65 K, x2 = 0.501 | 739.5 | 0.9255
295.65 K, x2 = 0.602 | 744.5 | 0.962
295.65 K, x2 = 0.694 | 749 | 0.983
295.65 K, x2 = 0.799 | 756.5 | 1.014
295.65 K, x2 = 0.905 | 769.1 | 1.06
298.15 K, x2 = 0 | 727.2 | 0.8509
298.15 K, x2 = 0.098 | 727.3 | 0.823
298.15 K, x2 = 0.198 | 728.9 | 0.8318
298.15 K, x2 = 0.301 | 731.1 | 0.8314
298.15 K, x2 = 0.397 | 734 | 0.8501
298.15 K, x2 = 0.501 | 737.5 | 0.8872
298.15 K, x2 = 0.602 | 742.5 | 0.9216
298.15 K, x2 = 0.694 | 747 | 0.9407
298.15 K, x2 = 0.799 | 754.4 | 0.9698
298.15 K, x2 = 0.905 | 766.9 | 1.013
